The results in this text go back to patent US20100256090A1, “Alginic Acid with Low Molecular Weight, Its Salts, Uses, Preparative Methods, Pharmaceutical Compositions and Foods” (priority 2007, published 2010).

Test [1] has as its system hypertension subjects. Kind of test: Clinical Example 1: blood pressure of hypertension subjects after oral granule or enteric capsule. In kind it is in vivo, human. The source says: This clinical example explains the effects of the low molecular weight alginate salts of the present invention and the effects of the low molecular weight alginate salts of the comparative example in improving hypertension.
Male and female hypertension subjects without other disease were selected, 360 for each sex, aged from 38 to 62 with an average age of 48, whose systolic blood pressure (SBP)(s) were from 155 to 165 mmHg and diastolic blood pressure (DBP)(s) were from 100 to 125 mmHg, said SBP(s) and DBP(s) were measured in resting state. The subjects were randomly grouped, 30 subjects for each group, and orally took granule of low molecular weight potassium alginate or enteric capsule of alginic acid with low molecular weight 1 to 3 times per day with a daily dose of 50 to 200 mg/Kg according to Table 2, and blood pressures before and 24 hours after administration were measured. The granule of low molecular weight potassium alginate was prepared in the following way: potassium alginate was prepared using the alginic acid with low molecular weight according to examples 1 to 10 or comparative example 1, and then the potassium alginate was prepared into granule according to the method of example 11 or comparative example 2. The enteric capsule of alginic acid with low molecular weight was prepared according to the method of example 11 or comparative example 2. Criterion of therapeutical effect made by China Hypertension League was referred to, that is, the systolic blood pressure reduces by more than 15 mmHg and the diastolic blood pressure reduces by more than 10 mmHg 24 hours after the administration.

The test system of test [2] is Male Wister rats feed with high lipid diet. Kind of test: Clinical Example 6: prevention of blood lipid increase in rats on high lipid diet. In kind it is in vivo. Conditions: conclusion from Table 7, one month. How it is done: This clinical example explains the effects of the low molecular weight alginate salt of the present invention and the effects of the low molecular weight alginate salt of the comparative example in preventing increase of blood lipid when they are added into high lipid diet.
Male Wister rats weighted from 180 to 200 g were randomly divided into 13 groups, 8 for each group, wherein one group was designated as a blank group and feed with normal diet, one group was designated as a control group and feed with a high lipid diet comprising 1 wt % of cholesterol, 0.5 wt % of cholate, 10 wt % of lard oil and 10 wt % of yolk, and the remaining groups were feed with the high lipid diet and were given through stomach the potassium alginate aqueous solution according to the present invention for three times every day such that the daily intake of potassium alginate for each rat reached […]. After one month of feeding, lipoprotein in serum, total cholesterol (TC), triglyeride (TG), high density lipoprotein cholesterol (HDL-C) and low density lipoprotein cholesterol as well as very low density lipoprotein cholesterol [(LDL+VLDL)-C] were measured using enzymatic methods commonly used in the clinic (for example, CHOD-PAP to measure TC and GPO-PAP to measure TG), and the results are shown in Table 7.

Test [3] has as its system hypertension subjects. Nature of the test: Clinical Example 7: blood pressure of hypertension subjects taking milk powder with potassium alginate. To be noted: conclusion from Table 8, one month use of milk powder. In kind it is in vivo, human. How it is done: This clinical example explains the effects of the low molecular weight alginate salt of the present invention and the effects of the low molecular weight alginate salt of the comparative example in reducing hypertension when they are added into milk powder.
Fresh milk containing 8 wt % of solid content was added with potassium alginate until the content of the potassium alginate reached 25 wt % in term of the solid content weight, the milk was then spray dried at 150° C. to obtain a milk powder.
Male and female hypertension subjects without other disease were selected, 48 for each sex, aged from 40 to 65 with an average age of 54, whose SBP(s) were from 145 to 155 mmHg and DBP(s) were from 120 to 125 mmHg, said SBP(s) and DBP(s) were measured in resting state. The subjects were randomly grouped, 8 subjects for each group, and took the milk power after infusing it, wherein the daily dose of potassium alginate reached 10 to 30 mg/Kg and the milk power was taken continuously for one month.

In the test with hypertension subjects [1] (effective: SBP reduces by more than 15 mmHg and DBP by more than 10 mmHg 24 hours after administration, oral), `NS(=O)(=O)c1cc2c(cc1Cl)NCNS2(=O)=O` [Positive Control, Hydrochlorothiazide] returned an effective rate of 70.1%. For the same compound, in the test with hypertension subjects [1] (first number of SBP/DBP, baseline, resting state, hypertension subjects, 30 per group), the “average SBP before administration” value is 162 mmHg. For the same compound, the “average SBP after administration 24 h” value in the test on hypertension subjects [1] (first number of SBP/DBP, oral, 1 to 3 times per day, daily dose 50 to 200 mg/Kg per Table 2, 24 hours after administration) was 121 mmHg. In addition, the “average DBP before administration” value in the test on hypertension subjects [1] (second number of SBP/DBP, baseline, resting state, hypertension subjects, 30 per group) is recorded as 118 mmHg. Further, the “average DBP after administration 24 h” value with hypertension subjects [1] (second number of SBP/DBP, oral, 1 to 3 times per day, daily dose 50 to 200 mg/Kg per Table 2, 24 hours after administration) turned out to be 95 mmHg.

Turning to “alginic acid with low molecular weight [Comparative Example 1]”, the “blood lipid increase preventing effect (in words)” value in test [2] is “inferior”. Moreover, in the test with hypertension subjects [3], the “blood pressure reducing effect (in words)” value is recorded as “inferior”.
